What was measured:
Assay type in all cases: biochemical
Aurora A = target: T1, Aurora A (Homo sapiens, UniProt O14965); experiment: Counter-screen against Aurora A; settings: read-out: AUR-A (IC50)
T1 sequence (O14965 1-403): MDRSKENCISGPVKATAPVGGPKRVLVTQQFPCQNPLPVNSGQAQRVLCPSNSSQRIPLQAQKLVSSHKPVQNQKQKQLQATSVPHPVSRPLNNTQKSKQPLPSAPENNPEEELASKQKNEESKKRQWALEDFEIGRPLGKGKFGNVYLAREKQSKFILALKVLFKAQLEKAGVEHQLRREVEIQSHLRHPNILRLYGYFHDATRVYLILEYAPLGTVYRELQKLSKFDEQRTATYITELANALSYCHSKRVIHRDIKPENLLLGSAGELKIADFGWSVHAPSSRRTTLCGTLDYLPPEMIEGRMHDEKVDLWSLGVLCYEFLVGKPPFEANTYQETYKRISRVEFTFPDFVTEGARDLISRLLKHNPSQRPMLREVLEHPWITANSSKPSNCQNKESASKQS
Procedure: (§1) To identify small molecule NUAK inhibitors, a biochemical NUAK2 enzymatic assay were outsourced to Eurofins. This assay was done radiometrically using full-length, recombinant enzyme. NUAK2 (h) was incubated with 8 mM MOPS pH 7.0, 0.2 mM EDTA, 300 μM […], 10 mM magnesium acetate and […] (specific activity and concentration as required). The reaction was initiated by the addition of the Mg/ATP mix. After incubation for 40 minutes at room temperature, the reaction was stopped by the addition of phosphoric acid to a concentration of 0.5%. 10 μL of the reaction was then spotted onto a P30 filtermat and washed four times for 4 minutes in 0.425% phosphoric acid and once in methanol prior to drying and scintillation counting. Compounds were routinely counter-screened against Aurora A and NUAK1. The results are shown in Table 1 where IC50's are reported in the following ranges: A: 0.1-10 nM; B: 11-100 nM; C: 101-1000 nM; D: >1000 nM for the compounds of Formula (I)

NUAK1 = target: T2, NUAK1 (Homo sapiens, UniProt O60285); experiment: Counter-screen against NUAK1
T2 sequence (O60285 1-661): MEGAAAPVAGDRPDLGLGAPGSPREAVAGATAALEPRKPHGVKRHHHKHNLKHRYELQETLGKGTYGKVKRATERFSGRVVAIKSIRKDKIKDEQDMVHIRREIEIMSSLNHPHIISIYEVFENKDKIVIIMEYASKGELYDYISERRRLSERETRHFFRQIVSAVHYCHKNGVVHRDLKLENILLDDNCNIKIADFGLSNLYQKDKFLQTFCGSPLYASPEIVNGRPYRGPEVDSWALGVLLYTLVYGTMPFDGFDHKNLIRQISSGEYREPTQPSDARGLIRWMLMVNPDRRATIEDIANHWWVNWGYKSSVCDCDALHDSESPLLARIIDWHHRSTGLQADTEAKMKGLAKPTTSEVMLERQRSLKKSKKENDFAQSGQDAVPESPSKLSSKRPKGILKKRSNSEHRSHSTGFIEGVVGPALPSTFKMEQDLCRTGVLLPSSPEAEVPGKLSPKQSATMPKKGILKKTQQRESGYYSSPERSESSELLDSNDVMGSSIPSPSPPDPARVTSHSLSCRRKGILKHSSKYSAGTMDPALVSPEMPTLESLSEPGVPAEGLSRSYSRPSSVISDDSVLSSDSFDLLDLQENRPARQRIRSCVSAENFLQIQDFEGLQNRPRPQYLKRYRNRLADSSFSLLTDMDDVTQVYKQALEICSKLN
Procedure: as §1

NUAK2 (h) = target: T3, NUAK2 (h) (Homo sapiens, UniProt Q9H093); experiment: NUAK2 enzymatic assay (radiometric, Eurofins); settings: full-length recombinant enzyme
T3 construct: This assay was done radiometrically using full-length, recombinant enzyme; purchased Eurofins
T3 sequence (Q9H093 1-628): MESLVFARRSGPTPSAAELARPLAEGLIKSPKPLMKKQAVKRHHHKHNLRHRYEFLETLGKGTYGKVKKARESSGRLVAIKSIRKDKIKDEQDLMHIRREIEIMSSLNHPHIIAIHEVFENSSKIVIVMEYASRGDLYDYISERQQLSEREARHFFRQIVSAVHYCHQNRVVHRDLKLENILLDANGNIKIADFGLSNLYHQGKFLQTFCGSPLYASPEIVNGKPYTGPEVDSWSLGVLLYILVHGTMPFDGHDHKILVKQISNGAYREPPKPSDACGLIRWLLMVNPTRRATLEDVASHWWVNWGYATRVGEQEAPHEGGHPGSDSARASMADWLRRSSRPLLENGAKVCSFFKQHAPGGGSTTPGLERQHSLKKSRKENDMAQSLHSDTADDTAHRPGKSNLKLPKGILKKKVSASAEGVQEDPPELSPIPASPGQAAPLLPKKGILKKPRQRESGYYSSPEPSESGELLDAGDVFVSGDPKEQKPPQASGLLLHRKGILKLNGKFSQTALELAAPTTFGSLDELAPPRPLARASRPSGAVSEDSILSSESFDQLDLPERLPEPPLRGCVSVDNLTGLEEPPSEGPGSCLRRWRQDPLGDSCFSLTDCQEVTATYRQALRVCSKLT
Procedure: as §1

Structure (SMILES)	IC50 (Aurora A) [nM]	IC50 (NUAK1) [nM]	IC50 (NUAK2 (h)) [nM]
CN1CCN(c2ccc(Nc3ncc(Cl)c(Nc4cccc5c4C(=O)NC5)n3)c(OC(F)F)c2)CC1 [Compound I-1, 7-((5-chloro-2-((2-(difluoromethoxy)-4-(4-methylpiperazin-1-yl)phenyl)amino)pyrimidin-4-yl)amino)isoindolin-1-one]	101 to 1000	11 to 100	0.1 to 10
CCN1CCN(c2ccc(Nc3nccc(Nc4cccc5c4C(=O)NC5)n3)cc2F)CC1 [Compound I-2, 7-((2-((4-(4-ethylpiperazin-1-yl)-3-fluorophenyl)amino)pyrimidin-4-yl)amino)isoindolin-1-one]	0.1 to 10	0.1 to 10	11 to 100
COc1cc2c(cc1Nc1ncc(Cl)c(Nc3cccc4c3C(=O)NC4)n1)CN(C)CC2 [Compound I-3, 7-((5-chloro-2-((6-methoxy-2-methyl-1,2,3,4-tetrahydroisoquinolin-7-yl)amino)pyrimidin-4-yl)amino)isoindolin-1-one]	101 to 1000	101 to 1000	11 to 100
CCN1CCN(c2ccc(Nc3ncc(Cl)c(Nc4cccc5c4C(=O)NC5)n3)cc2F)CC1 [Compound I-4, 7-((5-chloro-2-((4-(4-ethylpiperazin-1-yl)-3-fluorophenyl)amino)pyrimidin-4-yl)amino)isoindolin-1-one]	0.1 to 10	11 to 100	0.1 to 10
COc1cc(N2CCN(C)CC2)ccc1Nc1ncc(Cl)c(Nc2cccc3c2C(=O)NC3)n1 [Compound I-5, 7-((5-chloro-2-((2-methoxy-4-(4-methylpiperazin-1-yl)phenyl)amino)pyrimidin-4-yl)amino)isoindolin-1-one]	11 to 100	11 to 100	0.1 to 10
COc1c(Nc2ncc(Cl)c(Nc3cccc4c3C(=O)NC4)n2)ccc(N2CCN3CCCC3C2)c1F (stereo not shown) [Compound I-6, 7-((5-chloro-2-((3-fluoro-4-(hexahydropyrrolo[1,2-a]pyrazin-2(1H)-yl)-2-methoxyphenyl)amino)pyrimidin-4-yl)amino)isoindolin-1-one]	101 to 1000	11 to 100	11 to 100
COc1c(Nc2ncc(Cl)c(Nc3cccc4c3C(=O)NC4)n2)ccc(N2CCC(N3CCN(C)CC3)CC2)c1F [Compound I-7, 7-((5-chloro-2-((3-fluoro-2-methoxy-4-(4-(4-methylpiperazin-1-yl)piperidin-1-yl)phenyl)amino)pyrimidin-4-yl)amino)isoindolin-1-one]	101 to 1000	11 to 100	11 to 100
CN1CCN(c2ccc(Nc3ncc(Cl)c(Nc4cccc5c4C(=O)NC5)n3)c(C(F)(F)F)c2)CC1 [Compound I-8, 7-((5-chloro-2-((4-(4-methylpiperazin-1-yl)-2-(trifluoromethyl)phenyl)amino)pyrimidin-4-yl)amino)isoindolin-1-one]	101 to 1000	101 to 1000	11 to 100
CN1CCN(C2CCN(c3ccc(Nc4ncc(Cl)c(Nc5cccc6c5C(=O)NC6)n4)c(OC(F)F)c3)CC2)CC1 [Compound I-9, 7-((5-chloro-2-((2-(difluoromethoxy)-4-(4-(4-methylpiperazin-1-yl)piperidin-1-yl)phenyl)amino)pyrimidin-4-yl)amino)isoindolin-1-one]	101 to 1000	11 to 100	0.1 to 10
CN1CCc2ccc(Nc3ncc(Cl)c(Nc4cccc5c4C(=O)NC5)n3)cc2C1 [Compound I-10, 7-((5-chloro-2-((2-methyl-1,2,3,4-tetrahydroisoquinolin-7-yl)amino)pyrimidin-4-yl)amino)isoindolin-1-one]	0.1 to 10	0.1 to 10	0.1 to 10
CC(C)Oc1cc(N2CCN(C)CC2)ccc1Nc1ncc(Cl)c(Nc2cccc3c2C(=O)NC3)n1 [Compound I-11, 7-((5-chloro-2-((2-isopropoxy-4-(4-methylpiperazin-1-yl)phenyl)amino)pyrimidin-4-yl)amino)isoindolin-1-one]	> 1000	> 1000	101 to 1000
COc1cc2c(cc1Nc1ncc(Cl)c(Nc3cccc4c3C(=O)NC4)n1)CCN(C)C2 [Compound I-12, 7-((5-chloro-2-((7-methoxy-2-methyl-1,2,3,4-tetrahydroisoquinolin-6-yl)amino)pyrimidin-4-yl)amino)isoindolin-1-one]	> 1000	11 to 100	0.1 to 10
COc1nc(N2CCC(N3CCN(C)CC3)CC2)ccc1Nc1ncc(Cl)c(Nc2cccc3c2C(=O)NC3)n1 [Compound I-13, 7-((5-chloro-2-((2-methoxy-6-(4-(4-methylpiperazin-1-yl)piperidin-1-yl)pyridin-3-yl)amino)pyrimidin-4-yl)amino)isoindolin-1-one]	11 to 100	11 to 100	0.1 to 10
COc1nc(N2CCN(C)CC2)ccc1Nc1ncc(Cl)c(Nc2cccc3c2C(=O)NC3)n1 [Compound I-14, 7-((5-chloro-2-((2-methoxy-6-(4-methylpiperazin-1-yl)pyridin-3-yl)amino)pyrimidin-4-yl)amino)isoindolin-1-one]	11 to 100	0.1 to 10	11 to 100
Cc1c(N2CCN(C)CC2)ccc(Nc2ncc(Cl)c(Nc3cccc4c3C(=O)NC4)n2)c1Cl [Compound I-15, 7-((5-chloro-2-((2-chloro-3-methyl-4-(4-methylpiperazin-1-yl)phenyl)amino)pyrimidin-4-yl)amino)isoindolin-1-one]	101 to 1000	11 to 100	11 to 100
COc1cc2c(cc1Nc1ncc(Cl)c(Nc3cccc4c3C(=O)NC4)n1)CN(C)CC2(C)C [Compound I-16, 7-((5-chloro-2-((6-methoxy-2,4,4-trimethyl-1,2,3,4-tetrahydroisoquinolin-7-yl)amino)pyrimidin-4-yl)amino)isoindolin-1-one]	> 1000	11 to 100	11 to 100
COc1cc2c(cc1Nc1ncc(Cl)c(Nc3cccc4c3C(=O)NC4)n1)CCNC2 [Compound I-17, 7-((5-chloro-2-((7-methoxy-1,2,3,4-tetrahydroisoquinolin-6-yl)amino)pyrimidin-4-yl)amino)isoindolin-1-one]	> 1000	11 to 100	11 to 100
CN1CCN(c2ccc(Nc3ncc(Cl)c(Nc4ccc(F)c5c4C(=O)NC5)n3)c(OC(F)F)c2)CC1 [Compound I-84, 7-((5-chloro-2-((2-(difluoromethoxy)-4-(4-methylpiperazin-1-yl)phenyl)amino)pyrimidin-4-yl)amino)-4-fluoroisoindolin-1-one]	> 1000		0.1 to 10
COc1cc(CN(C)C)ccc1Nc1ncc(Cl)c(Nc2ccc(F)c3c2C(=O)NC3)n1 [Compound I-85, 7-((5-chloro-2-((4-((dimethylamino)methyl)-2-methoxyphenyl)amino)pyrimidin-4-yl)amino)-4-fluoroisoindolin-1-one]	> 1000		11 to 100

Reference: patent US12643886B2 (Ontario Institute for Cancer Research (OICR), priority 2021, dated 2026)
